Literature values, collected in patent publication US12226503B2, “Prebiotic skin care compositions containing carboxylic acids” (priority 2019, dated 2025).

Details: toxic or irritant for humans or on skin

Compound	Toxicity
O=C(O)CC(O)C(=O)O (racemic) [D,L-Malic acid]	+
CCC(N)C(=O)O (racemic) [D,L-α-amino-N-butyric acid]	+
CCCCCCC(N)C(=O)O (racemic) [D,L-α-amino-caprylic acid]	+
O=C(O)c1ccc(O)cc1 [4-hydroxybenzoic acid]	+
O=C(O)[C@@H](O)[C@@H](O)[C@H](O)[C@@H](O)C(=O)O [D-saccharic acid]	+
COc1cc(/C=C/C(=O)O)ccc1O [Ferulic acid]	+
O=C(O)/C=C/C(=O)O [Fumaric acid]	+
O=C(O)c1cc(O)c(O)c(O)c1 [Gallic acid]	+
O=CC(=O)O [Glyoxylic acid]	+
O=C(O)CNC(=O)c1ccccc1 [Hippuric acid]	+
C[C@H](O)C(=O)O [L-lactic acid]	+
O=C(O)[C@@H](O)[C@H](O)[C@H](O)[C@@H](O)C(=O)O [Mucic acid]	+
CC(=O)N[C@H]1[C@H]([C@H](O)[C@H](O)CO)O[C@](O)(C(=O)O)C[C@@H]1O [N-acetyl-neuraminic acid]	+
CCCCCCCCCCCCCCCCCC(=O)O [Stearic acid]	+
O=C(O)C(CO)c1ccccc1 (stereo not shown) [Tropic acid]	+
CC(O)CC(=O)O (stereo not drawn) [β-hydroxybutyric acid]	+
NCCCC(=O)O [γ-Aminobutyric acid]	+
NCCCCCC(=O)O [ε-Amino-N-caproic acid]	+
Citric acid	+
